Measurements: ChEMBL document CHEMBL1817541, “Synthesis and Evaluation of the α-D-/α-L-Rhamnosyl and Amicetosyl Digitoxigenin Oligomers as Anti-tumor Agents” (ACS Med Chem Lett, 2011)

How the values were obtained:
Assay type in all cases: functional
NCI-H522 = assay: Cytotoxicity against human NCI-H522 cells after 48 hrs by sulforhodamine B assay; settings: NCI-H522, 48 h
NCI-H226 = assay: Cytotoxicity against human NCI-H226 cells after 48 hrs by sulforhodamine B assay; settings: NCI-H226, 48 h
OVCAR-3 = assay: Cytotoxicity against human OVCAR3 cells after 48 hrs by sulforhodamine B assay; settings: OVCAR-3, 48 h
SN12C = assay: Cytotoxicity against human SN12C cells after 48 hrs by sulforhodamine B assay
TK-10 = assay: Cytotoxicity against human TK10 cells after 48 hrs by sulforhodamine B assay; settings: TK-10, 48 h
SF-295 = assay: Cytotoxicity against human SF295 cells after 48 hrs by sulforhodamine B assay; settings: SF-295, 48 h
A498 = assay: Cytotoxicity against human A498 cells after 48 hrs by sulforhodamine B assay; settings: A498, 48 h
NCI-H460 [1] = assay: Cytotoxicity against human NCI-H460 cell assessed as cell death at 50 nM after 12 hrs by Hoechst 33342/propidium iodide staining based fluorescence microscopy
HOP-62 = assay: Cytotoxicity against human HOP62 cells after 48 hrs by sulforhodamine B assay; settings: HOP-62, 48 h
HCT-15 = assay: Cytotoxicity against human HCT15 cells after 48 hrs by sulforhodamine B assay; settings: HCT-15, 48 h
MCF7 = assay: Cytotoxicity against human MCF7 cells after 48 hrs by sulforhodamine B assay; settings: MCF7, 48 h
HOP-92 = assay: Cytotoxicity against human HOP92 cells after 48 hrs by sulforhodamine B assay; settings: HOP-92, 48 h
Hs-578T = assay: Cytotoxicity against human Hs578T cells after 48 hrs by sulforhodamine B assay
PC-3 = assay: Cytotoxicity against human PC3 cells after 48 hrs by sulforhodamine B assay; settings: PC-3, 48 h
HT-29 = assay: Cytotoxicity against human HT-29 cells after 48 hrs by sulforhodamine B assay; settings: HT-29, 48 h
A549 = assay: Cytotoxicity against human A549 cells after 48 hrs by sulforhodamine B assay; settings: A549, 48 h
RPMI-8226 = assay: Cytotoxicity against human RPMI8226 cells after 48 hrs by sulforhodamine B assay; settings: RPMI-8226, 48 h
UACC-62 = assay: Cytotoxicity against human UACC62 cells after 48 hrs by sulforhodamine B assay; settings: UACC-62, 48 h
NCI-H460 [2] = assay: Cytotoxicity against human NCI-H460 cell assessed as cell death at 10 nM after 12 hrs by Hoechst 33342/propidium iodide staining based fluorescence microscopy
NCI-H460 [3] = assay: Cytotoxicity against human NCI-H460 cell assessed as cell death at 500 nM after 12 hrs by Hoechst 33342/propidium iodide staining based fluorescence microscopy
NCI-H23 = assay: Cytotoxicity against human NCI-H23 cells after 48 hrs by sulforhodamine B assay; settings: NCI-H23, 48 h
NCI-H460 [4] = assay: Cytotoxicity against human NCI-H460 cell assessed as cell death after 12 hrs by Hoechst 33342/propidium iodide staining based fluorescence microscopy; settings: NCI-H460, 12 h
SK-MEL-28 = assay: Cytotoxicity against human SK-MEL-28 cells after 48 hrs by sulforhodamine B assay; settings: SK-MEL-28, 48 h
786-0 = assay: Cytotoxicity against human 786-0 cells after 48 hrs by sulforhodamine B assay; settings: 786-0, 48 h
ACHN = assay: Cytotoxicity against human ACHN cells after 48 hrs by sulforhodamine B assay
NCI-H460 [5] = assay: Cytotoxicity against human NCI-H460 cells after 48 hrs by sulforhodamine B assay; settings: NCI-H460, 48 h
Malme-3M = assay: Cytotoxicity against human MALME-3M cells after 48 hrs by sulforhodamine B assay
COLO 205 = assay: Cytotoxicity against human COLO205 cells after 48 hrs by sulforhodamine B assay; settings: COLO 205, 48 h
M14 = assay: Cytotoxicity against human M14 cells after 48 hrs by sulforhodamine B assay; settings: M14, 48 h
SR = assay: Cytotoxicity against human SR cells after 48 hrs by sulforhodamine B assay
SK-OV-3 = assay: Cytotoxicity against human SKOV3 cells after 48 hrs by sulforhodamine B assay; settings: SK-OV-3, 48 h
NCI-H460 [6] = assay: Induction of apoptosis in human NCI-H460 cells in at 50 nM after 12 hrs by Hoechst 33342/propidium iodide staining based fluorescence microscopy
SF-268 = assay: Cytotoxicity against human SF268 cells after 48 hrs by sulforhodamine B assay; settings: SF-268, 48 h
NCI-H460 [7] = assay: Cytotoxicity against human NCI-H460 cell assessed as cell death at 1 uM after 12 hrs by Hoechst 33342/propidium iodide staining based fluorescence microscopy
NCI-H322M = assay: Cytotoxicity against human NCI-H322M cells after 48 hrs by sulforhodamine B assay
LOX IMVI = assay: Cytotoxicity against human LOXIMVI cells after 48 hrs by sulforhodamine B assay
NCI-H460 [8] = assay: Cytotoxicity against human NCI-H460 cells in serum free medium assessed as cell death at 10 uM after 12 hrs by Hoechst 33342/propidium iodide staining based fluorescence microscopy
SF-539 = assay: Cytotoxicity against human SF539 cells after 48 hrs by sulforhodamine B assay; settings: SF-539, 48 h
MDA-MB-435 = assay: Cytotoxicity against human MDA-MB-435 cells after 48 hrs by sulforhodamine B assay; settings: MDA-MB-435, 48 h
UO-31 = assay: Cytotoxicity against human UO31 cells after 48 hrs by sulforhodamine B assay; settings: UO-31, 48 h
T47D = assay: Cytotoxicity against human T47D cells after 48 hrs by sulforhodamine B assay
OVCAR-4 = assay: Cytotoxicity against human OVCAR4 cells after 48 hrs by sulforhodamine B assay; settings: OVCAR-4, 48 h
SNB-19 = assay: Cytotoxicity against human SNB19 cells after 48 hrs by sulforhodamine B assay; settings: SNB-19, 48 h
NCI-H460 [9] = assay: Cytotoxicity against human NCI-H460 cell assessed as cell death at 100 uM after 12 hrs by Hoechst 33342/propidium iodide staining based fluorescence microscopy
KM12 = assay: Cytotoxicity against human KM12 cells after 48 hrs by sulforhodamine B assay; settings: KM12, 48 h
NCI-H460 [10] = assay: Cytotoxicity against human NCI-H460 cell assessed as cell death at 100 nM after 12 hrs by Hoechst 33342/propidium iodide staining based fluorescence microscopy
SW-620 = assay: Cytotoxicity against human SW620 cells after 48 hrs by sulforhodamine B assay; settings: SW-620, 48 h
SK-MEL-5 = assay: Cytotoxicity against human SK-MEL-5 cells after 48 hrs by sulforhodamine B assay; settings: SK-MEL-5, 48 h
OVCAR-8 = assay: Cytotoxicity against human OVCAR8 cells after 48 hrs by sulforhodamine B assay; settings: OVCAR-8, 48 h
UACC-257 = assay: Cytotoxicity against human UACC257 cells after 48 hrs by sulforhodamine B assay; settings: UACC-257, 48 h
MOLT-4 = assay: Cytotoxicity against human MOLT4 cells after 48 hrs by sulforhodamine B assay; settings: MOLT-4, 48 h
DU-145 = assay: Cytotoxicity against human DU145 cells after 48 hrs by sulforhodamine B assay; settings: DU-145, 48 h
EKVX = assay: Cytotoxicity against human EKVX cells after 48 hrs by sulforhodamine B assay
MDA-MB-231 = assay: Cytotoxicity against human MDA-MB-231 cells after 48 hrs by sulforhodamine B assay; settings: MDA-MB-231, 48 h
SNB-75 = assay: Cytotoxicity against human SNB75 cells after 48 hrs by sulforhodamine B assay; settings: SNB-75, 48 h
U-251 = assay: Cytotoxicity against human U251 cells after 48 hrs by sulforhodamine B assay; settings: U-251, 48 h

`C[C@@H]1O[C@@H](O[C@H]2CC[C@@]3(C)[C@H](CC[C@@H]4[C@@H]3CC[C@]3(C)[C@@H](C5=CC(=O)OC5)CC[C@]43O)C2)CC[C@H]1O` [RAMNODIGIN] gave a GI50 (NCI-H522) of 9.38 nM, a GI50 (NCI-H226) of 19.3 nM and a GI50 (OVCAR-3) of 4.94 nM. The GI50 (SN12C) was 3.61 nM, the GI50 (TK-10) was 3.75 nM and the GI50 (SF-295) was 10.4 nM. The GI50 (A498) was 20.7 nM, the Activity (NCI-H460 [1]) was 53.65% and the GI50 (HOP-62) was 8.55 nM. It also gave a GI50 (HCT-15) of 20.5 nM, a GI50 (MCF7) of 5.89 nM and a GI50 (HOP-92) of 11.3 nM. It also gave a GI50 (Hs-578T) of 4.57 nM, a GI50 (PC-3) of 9.55 nM and a GI50 (HT-29) of 11.9 nM. For the same compound, the GI50 (A549) was 1.56 nM, the GI50 (RPMI-8226) was 23.5 nM and the GI50 (UACC-62) was 12.7 nM. For the same compound, the Activity (NCI-H460 [2]) was 15.1%, the Activity (NCI-H460 [3]) was 100% and the GI50 (NCI-H23) was 4.13 nM. The IC50 (NCI-H460 [4]) was 48 nM, the GI50 (SK-MEL-28) was 23.1 nM and the GI50 (786-0) was 6.21 nM. For the same compound, the GI50 (ACHN) was 4.31 nM, the GI50 (NCI-H460 [5]) was 3.83 nM and the GI50 (Malme-3M) was 18.3 nM. The GI50 (COLO 205) was 29.6 nM, the GI50 (M14) was 19.3 nM and the GI50 (SR) was 2.25 nM. For the same compound, the GI50 (SK-OV-3) was 22.2 nM, the Activity (NCI-H460 [6]) was 45.71% and the GI50 (SF-268) was 4.28 nM. For the same compound, the Activity (NCI-H460 [7]) was 100%, the GI50 (NCI-H322M) was 7.78 nM and the GI50 (LOX IMVI) was 11.8 nM. It also gave an Activity (NCI-H460 [8]) of 100%, a GI50 (SF-539) of 7.8 nM and a GI50 (MDA-MB-435) of 27.7 nM. For the same compound, the GI50 (UO-31) was 5.15 nM, the GI50 (T47D) was 21 nM and the GI50 (OVCAR-4) was 18.9 nM. The GI50 (SNB-19) was 37.5 nM, the Activity (NCI-H460 [9]) was 100% and the GI50 (KM12) was 32.4 nM. For the same compound, the Activity (NCI-H460 [10]) was 87.28%, the GI50 (SW-620) was 11.1 nM and the GI50 (SK-MEL-5) was 5.44 nM. It also gave a GI50 (OVCAR-8) of 2.5 nM, a GI50 (UACC-257) of 19.6 nM and a GI50 (MOLT-4) of 2.57 nM. It also gave a GI50 (DU-145) of 3.45 nM, a GI50 (EKVX) of 5.13 nM and a GI50 (MDA-MB-231) of 33.9 nM. The GI50 (SNB-75) was 14.9 nM and the GI50 (U-251) was 2.57 nM.
